From paper PMC12706144, “Potential Antidiabetic Inhibitors and Antimicrobials from the Fungus Fusarium lichenicola Isolated from the Cicada Cryptotympana mandarina Distant, 1891” (Journal of Microbiology and Biotechnology, 2025)

Key:
[1] = test system: S. aureus, B. subtilis, E. coli, S. cerevisiae; details: cited from earlier work
[2] = molecular target: T1, α-amylase (Sus scrofa, UniProt P00690); assay: α-Amylase inhibitory assay (starch azure); type: biochemical; details: Table 4, reference compounds, independent experiment; read-out: IC50, α-Amylase inhibition
T1 sequence (P00690 16-511): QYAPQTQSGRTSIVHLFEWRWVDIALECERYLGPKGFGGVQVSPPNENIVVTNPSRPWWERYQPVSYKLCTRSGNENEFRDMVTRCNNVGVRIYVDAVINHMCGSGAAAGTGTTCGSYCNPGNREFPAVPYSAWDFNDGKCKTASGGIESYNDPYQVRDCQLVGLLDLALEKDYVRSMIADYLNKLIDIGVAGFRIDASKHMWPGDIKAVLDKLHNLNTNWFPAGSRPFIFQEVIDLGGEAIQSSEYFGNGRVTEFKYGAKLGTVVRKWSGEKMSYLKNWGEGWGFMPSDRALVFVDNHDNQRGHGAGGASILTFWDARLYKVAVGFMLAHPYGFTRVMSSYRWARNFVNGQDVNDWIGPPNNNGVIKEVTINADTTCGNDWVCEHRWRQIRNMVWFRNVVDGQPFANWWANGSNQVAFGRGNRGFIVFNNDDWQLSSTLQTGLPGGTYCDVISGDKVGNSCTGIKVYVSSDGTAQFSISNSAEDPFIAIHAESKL

[3] = molecular target: α-glucosidase (Saccharomyces cerevisiae, UniProt P53341); type: biochemical; details: Table 4, reference compounds, independent experiment; read-out: IC50, α-Glucosidase inhibition
Sequence of α-glucosidase (P53341 whole entry, looked up): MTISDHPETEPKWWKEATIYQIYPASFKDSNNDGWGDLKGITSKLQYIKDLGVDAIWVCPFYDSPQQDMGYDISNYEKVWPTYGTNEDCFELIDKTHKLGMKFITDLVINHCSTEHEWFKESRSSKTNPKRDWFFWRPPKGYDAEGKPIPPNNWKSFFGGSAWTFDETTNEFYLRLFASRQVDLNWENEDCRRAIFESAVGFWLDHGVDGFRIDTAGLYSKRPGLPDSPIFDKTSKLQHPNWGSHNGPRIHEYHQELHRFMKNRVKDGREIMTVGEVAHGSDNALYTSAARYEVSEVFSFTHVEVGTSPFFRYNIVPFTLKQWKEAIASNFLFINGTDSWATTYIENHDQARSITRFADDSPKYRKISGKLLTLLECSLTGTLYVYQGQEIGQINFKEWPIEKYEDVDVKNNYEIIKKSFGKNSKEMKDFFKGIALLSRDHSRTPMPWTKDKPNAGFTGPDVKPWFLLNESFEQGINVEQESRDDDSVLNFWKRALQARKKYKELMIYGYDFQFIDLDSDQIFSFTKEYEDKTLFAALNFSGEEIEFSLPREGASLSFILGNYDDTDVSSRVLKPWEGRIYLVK

[4] = test system: various bacterial pathogens; parameters: method as in PMID 34394014; details: cited from earlier work
[5] = test system: S. aureus, B. subtilis, E. coli, and Klebsiella pneumoniae; details: cited from earlier work
[6] = test system: Gram-positive and Gram-negative bacteria and fungi; details: cited from earlier work

In the case of `C=C(C)C1CC=C(C)CC1` (stereo not drawn) [C4, 4-Isopropenyl-1-methylcyclohexene], the MICs [1] is given as 0.5 to 1.0 µg/mL.

For `CSSSC` [C11, Dimethyltrisulfane], the IC50 [2] is listed as 332 ± 23 µM, the IC50 [3] is listed as 462 ± 44 µM and the antimicrobial activity [4] is listed as “promising antimicrobial activity”.

In the case of `CCCCCCCCCCCCCCCC(=O)O` [C21, n-Hexadecanoic acid], the antibacterial effects [5] is listed as “good antibacterial effects”.

For `CCCCCC/C=C\CCCCCCCC(=O)O` [C22, Palmitoleic acid], the antimicrobial activity [6] is given as “antimicrobial activity”.
